# Experimental data as given in patent US20250314665A1, “BIOMARKERS FOR CEREBRAL METABOLIC DISORDERS, AND DIAGNOSTIC METHODS USING THEREOF” (COMMISSARIAT A L'ENERGIE ATOMIQUE ET AUX ENERGIES …, priority 2022, published 2025).
# “Also recorded” adds a separate entry of the source.
# Legend:
# Type in all cases: in vivo, mouse
# CrT KO mice [1] = assay: Object recognition test (ORT) in DCE-treated CrT KO mice
# Description: (§1) Treatment continued during behavioral testing, which took two weeks, for a total of 30 days of treatment. The testing order for behavioral assessment performed in the same mice consisted of: object recognition test (ORT) 24 h (3 days), Y maze (1 day), Morris water maze (MWM) with hidden platform (7 days).
# The day before testing, mice were familiarized with the empty arena for 10 min. The object recognition test (ORT), which is based on the spontaneous tendency of rodents to spend more time exploring a novel object than a familiar one, measures short- and long-term memory and consists of a sample and a testing phase. During the sample phase, mice were placed in the arena with two identical objects placed in diagonally opposite corners of the arena (about 6 cm from the walls) for 10 min. The test phase was 24 hours after the sample phase. Mice were returned to the arena with an identical copy of one of the familiar objects and a new object placed in the same position. The mice explored the objects for 5 min.
# (§2) DCE was intranasally administered (Ullio-Gamboa G, et al. Dodecyl creatine ester-loaded nanoemulsion as a promising therapy for creatine transporter deficiency. Nanomedicine 14, 1579-1593 (2019)) to Slc6a8^−/y for 30 days, once a day at 4 mg/g of body weight, whilst the control groups were wild-type (WT) and vehicle-treated (Veh) Slc6a8^−/y mice, at N=8/group. Cognitive performance was evaluated using the object recognition test, the Y-maze, and the Morris water maze (MWM). Then, proteomics was performed on four different brain regions: cortex, hippocampus, cerebellum and brainstem; and the key protein abundances were correlated with behavioral performance, identifying several mechanistic pathways.
# CrT KO mice [2] = assay: Y maze spontaneous alternation in DCE-treated CrT KO mice
# Description: as §1
# Mice were placed in the center of the maze and movement was recorded for 8 min. The number of arm entries (all four limbs within the arm) and the number of triads (three arm entries) were video-recorded in order to calculate the alternation percentage defined as the number of triads divided by the number of possible alternations (total arm entries minus 2) and then multiplying by 100.
# as §2
# CrT KO mice [3] = assay: Morris water maze (MWM) in DCE-treated CrT KO mice; conditions: DCE intranasal 4 mg/g once a day; hidden platform, 7 days
# Description: as §1
# Mice were trained for 4 trials per day and for a total of 7 days in a circular water tank (diameter, 120 cm; height, 40 cm), filled with water (23° C.) rendered opaque by the addition of a non-toxic white paint to a depth of 25 cm. […] Mice were allowed up to 60 s to reach the escape platform, and their swimming paths were automatically recorded by the Noldus Ethovision system. On the last trial of the last training day, mice received a probe trial, during which the escape platform was removed from the tank and the swimming paths were recorded over 60 s while mice searched for the missing platform
# as §2, with “Then, proteomics was performed on four different brain regions: cortex, hippocampus, cerebellum and brainstem; and the key protein abundances were correlated with behavioral performance, identifying several mechanistic pathways.” left out
# CrT KO mice [4] = assay: Label-free shotgun proteomics of brain regions after DCE treatment
# Description: Total protein (15 μg) was extracted from different brain regions and mixed with lithium dodecyl sulfate lysis buffer (Invitrogen) and incubated at 99° C. for 5 min, and then separated by a short electrophoresis migration (5 min) at 200 V on NuPAGE 4-12% Bis-Tris gel with MES/SDS 1× (Invitrogen) as running buffer. Gels were stained with SimplyBlue SafeStain (Thermo) for 5 min followed by an overnight wash in water with gentle agitation. The polyacrylamide band containing the whole proteome from each sample was excised and treated as recommended (Hartmann E M, Armengaud J. N-terminomics and proteogenomics, getting off to a good start. Proteomics 14, 2637-2646 (2014)). Proteins were in-gel proteolyzed with trypsin gold (Promega) in the presence of 0.01% of Protease Max surfactant (Promega) at 50° C. for 60 min. From the resulting peptide fraction (50 μL), a volume of 1 μL corresponding to approximately 300 ng of peptides was analyzed by liquid chromatography-tandem mass spectrometry (LC-MS/MS) using an Ultimate 3000 nano-LC system coupled to a Q-Exactive HF mass spectrometer (Thermo Scientific) operated as described previously (Hartmann E M, Armengaud J. N-terminomics and proteogenomics, getting off to a good start. Proteomics 14, 2637-2646 (2014)). Peptides were loaded on a reverse-phase PepMap 100 C18 μ-precolumn (5 μm, 100 Å, 300 μm i.d.×5 mm, Thermo Fisher), and then resolved on a nanoscale PepMap 100 C18 nanoLC column (3 μm, 100 Å, 75 μm i.d.×50 cm, Thermo Fisher) at a flow rate of 0.2 μL·min^−1 using a 90-min gradient (4% B for 0 to 3 min, 4-25% B from 3 to 78 min and 25-40% B from 78 to 93 min) with mobile phase A corresponding to 0.1% HCOOH/100% H2O and mobile phase B corresponding to 0.1% HCOOH/80% CH3CN/20% H2O). The mass spectrometer was operated in Top20 mode, with a scan range of MS acquisition from 350 to 1800 m/z and selection and fragmentation using a 10 s dynamic exclusion time for the 20 most abundant precursor ions. Only ion precursors with a 2+ or 3+ charge were selected for High-energy collisional dissociation (HCD) fragmentation performed at a normalized collision energy of 27 eV.
# MS/MS spectra were assigned using the Mascot Daemon software version 2.6.1 (Matrix Science) and the Mus musculus SwissProt database comprising 17,096 protein sequences. Peptide tolerance, MS/MS fragment tolerance, and the maximum of missed cleavages were set at 5 ppm, 0.02 D and 2, respectively. Carbamidomethylation of cysteine was considered as fixed modification. Oxidation of methionine was taken into account as variable modification. Peptides identified at a p-value≤0.05 in homology threshold mode and proteins identified with at least two distinct peptides were selected (false discovery rate below 1%).
# In-house script was constructed, using R programming language, to identify the differentially expressed proteins between the […] four different regions of the brain: cortex, cerebellum, hippocampus and brainstem. Initially, the proteomics data were normalized using the Variance Stabilizing Normalization (Motakis E S, Nason G P, Fryzlewicz P, Rutter G A. Variance stabilization and normalization for one-color microarray data using a data-driven multiscale approach. Bioinformatics 22, 2547-2553 (2006)). Proteins with at least 10 MS/MS spectra across all conditions were retained. Unsupervised variation filter was then applied to the proteomics data (Hamoudi R A, et al. Differential expression of NF-kappaB target genes in MALT lymphoma with and without chromosome translocation: insights into molecular mechanism. Leukemia 24, 1487-1497 (2010)) where any 8 samples with MS/MS detected protein were included. […]
# CrT KO mice [5] = assay: Western blotting of dissected brain tissue after DCE treatment
# Description: Western blotting was used to detect the abundance of PLCB1 and the two inhibitors of NFkB, IKBα and IKBβ, in the dissected brain tissue. Briefly, brain tissue was homogenized in freshly prepared lysis buffer containing 20 mM Trizma-Base, 150 mM NaCl, pH 7.4 (Sigma-Aldrich, Saint-Quentin Fallavier, France) and supplemented with 1% Triton X-100, 4% of complete Protease Inhibitor Cocktail and 20% of a mix of anti-phosphatase inhibitors using a Precellys Evolution tissue homogenizer. The samples were then centrifuged first at 2500×g (15 min) and then at 10 000×g (20 min) on homogenates to produce lysate for electrophoresis. Proteins (10 to 20 μg) and protein standard in Laemmli buffer were loaded on 4%-15% CRITERION TGX STAIN-FREE protein gel in running buffer TGS 1×(all from Bio-Rad, Marnes-la-Coquette, France) and transferred to a 0.2 μm PVDF membrane with the Trans-Blot Turbo RTA Midi Transfer Kit (Bio-Rad, Marnes-la-Coquette, France). Membranes were blocked for 30 min in 5% low-fat milk in TBS-Tween 20 0.1% at room temperature. Blots were probed with specific primary antibodies overnight at 4° C. and detected by horseradish peroxidase secondary antibodies diluted 1:5 000 or 1:50 000 in 5% low-fat milk in TBS-Tween 20 0.1% at room temperature. For protein detection, membranes were exposed to the ECL prime Western blotting system (Amersham, UK) or Clarity western ECL substrate in a chemidoc touch imaging system for a measurable exposure time (Bio-Rad, Marnes-la-Coquette, France) and quantified with Image Lab Software (Bio-Rad, Marnes-la-Coquette, France). The following antibodies and dilutions were used: anti-PLCB1 (1/1000, Abcam, ab182359), anti-IKBα (1/500, Cell Signaling Technology, 4812S), anti-IKBβ (1/500, Cell Signaling Technology, 15519S), anti-PSD95 (1/2000, Merck, MABN68), and anti-tubulin (1/2000, Sigma-Aldrich, T6199), anti-KIF1A (1/1000, Abcam, ab180153).
# as §2
smiles,measurement,setting,value
"CCCCCCCCCCCCOC(=O)CN(C)C(=N)N [DCE, dodecyl creatine ester]","time observing the novel object, DCE-treated vs vehicle-treated CrT KO mice","CrT KO mice [1]; ORT 24 h, DCE intranasal once a day 4 mg/g body weight, 30 days, N=8/group, one-way ANOVA p<0.01, Tukey p<0.05",more time
same,median time (novel object) of DCE-treated group as % of the WT median value,"CrT KO mice [1]; ORT, DCE intranasal 4 mg/g once a day",96%
same,observation time of novel object compared with WT mice,"CrT KO mice [1]; ORT, DCE intranasal 4 mg/g once a day, p=0.406",no difference
same,"object discrimination index / percent time with the novel object (FIG. 2A, 2B)","CrT KO mice [1]; ORT, WT and DCE-treated, but not vehicle-treated KO mice",preference for the novel object
same,spontaneous alternation performance in Y-maze vs vehicle CrT KO mice,CrT KO mice [2]; DCE intranasal 4 mg/g once a day,higher; also recorded: significantly improved
same,alternation rate in Y-maze vs WT mice,"CrT KO mice [2]; DCE-treated CrT KO mice, P=0.058",did not differ
same,median alternation rate in Y-maze,"CrT KO mice [2]; DCE-treated CrT KO mice, vehicle 48%, WT 62%, P=0.058 vs WT",86%
same,memory abilities in MWM,CrT KO mice [3],No positive effects
same,presynaptic IgSF8 protein abundance,CrT KO mice [4]; brain cortex,significantly upregulated
same,"ANK1 abundance (downregulated in vehicle CrT KO mice), effect of DCE treatment",CrT KO mice [4]; cerebellum,significantly rescued
same,"ANXA5 abundance (downregulated in vehicle CrT KO mice), effect of DCE treatment",CrT KO mice [4]; cerebellum,significantly rescued
same,"FABP7 abundance (upregulated in CrT KO mice), DCE-treated CrT KO vs WT",CrT KO mice [4]; cerebellum,unchanged
same,"LMNB1 abundance (upregulated in CrT KO mice), DCE-treated CrT KO vs WT",CrT KO mice [4]; cerebellum,unchanged
same,"MeCP2 abundance (downregulated in vehicle CrT KO mice), effect of DCE treatment",CrT KO mice [4]; cerebellum,significantly rescued
same,"PURB abundance (upregulated in CrT KO mice), DCE-treated CrT KO vs WT",CrT KO mice [4]; cerebellum,unchanged
same,"DCLK1 abundance (upregulated in CrT KO mice), DCE-treated CrT KO vs WT",CrT KO mice [4]; cortex,unchanged
same,"NCAM1 abundance (upregulated in CrT KO mice), DCE-treated CrT KO vs WT",CrT KO mice [4]; cortex,unchanged
same,"PI4KA abundance (upregulated in CrT KO mice), DCE-treated CrT KO vs WT",CrT KO mice [4]; cortex,unchanged
same,"PLCB1 abundance (downregulated in vehicle CrT KO mice), effect of DCE treatment",CrT KO mice [4]; cortex,significantly rescued
same,"PURB abundance (upregulated in CrT KO mice), DCE-treated CrT KO vs WT",CrT KO mice [4]; cortex,unchanged
same,"IGSF8 abundance (downregulated in vehicle CrT KO mice), effect of DCE treatment",CrT KO mice [4]; hippocampus,significantly rescued
same,"KIF1A abundance (upregulated in CrT KO mice), DCE-treated CrT KO vs WT",CrT KO mice [4]; hippocampus,unchanged
same,"L1CAM abundance (upregulated in CrT KO mice), DCE-treated CrT KO vs WT",CrT KO mice [4]; hippocampus,unchanged
same,"NCAM1 abundance (upregulated in CrT KO mice), DCE-treated CrT KO vs WT",CrT KO mice [4]; hippocampus,unchanged
same,PLCB1 protein abundance by Western blot,"CrT KO mice [5]; brain cortex, DCE-treated CrT KO mice, p=0.0004",significant increase; also recorded: significantly increased
same,IκBα protein level by Western blot,"CrT KO mice [5]; brain cortex, DCE-treated CrT KO mice, p=0.008",reconstituted; also recorded: promotes
same,postsynaptic density protein PSD95 by Western blot,"CrT KO mice [5]; brain cortex, p=0.0096",significantly upregulated
same,KIF1A by Western blot (overexpressed in vehicle CrT KO mice),CrT KO mice [5]; cerebellum,rescued this overexpression
same,PLCB1 protein abundance by Western blot,"CrT KO mice [5]; cerebellum, DCE-treated CrT KO mice",significantly increased
same,KIF1A by Western blot (overexpressed in vehicle CrT KO mice),CrT KO mice [5]; cortex,rescued this overexpression
same,Pro-BDNF/BDNF level by Western blot,"CrT KO mice [5]; cortex, p=0.0043",higher
same,KIF1A by Western blot (overexpressed in vehicle CrT KO mice),CrT KO mice [5]; hippocampus,rescued this overexpression
same,PLCB1 protein abundance by Western blot,"CrT KO mice [5]; hippocampus, DCE-treated CrT KO mice",significantly increased
